# According to paper PMC5628579, “Potent mechanism-based sirtuin-2-selective inhibition by an in situ-generated occupant of the substrate-binding site, “selectivity pocket” and NAD^+-binding site” (Chemical Science, 2017):
# Read-outs that look alike come from different tables or passages of the source. Where a SMILES comes first, the peptide text is derived from it. Side-chain parts run from the residue outwards. The star is where a group is joined. Cbz = O=C(OCc1ccccc1)*; Bz = O=C(c1ccccc1)*
# What was measured:
# SIRT2 = target: T1, SIRT2 (Homo sapiens, UniProt Q8IXJ6); experiment: Fluor de Lys SIRT2 assay; details: for inhibition at 10 µM: read-out: % inhibition at 10 μM SIRT2; for inhibition at 1 µM: read-out: % inhibition at 1 μM SIRT2
# T1 sequence (Q8IXJ6 1-389): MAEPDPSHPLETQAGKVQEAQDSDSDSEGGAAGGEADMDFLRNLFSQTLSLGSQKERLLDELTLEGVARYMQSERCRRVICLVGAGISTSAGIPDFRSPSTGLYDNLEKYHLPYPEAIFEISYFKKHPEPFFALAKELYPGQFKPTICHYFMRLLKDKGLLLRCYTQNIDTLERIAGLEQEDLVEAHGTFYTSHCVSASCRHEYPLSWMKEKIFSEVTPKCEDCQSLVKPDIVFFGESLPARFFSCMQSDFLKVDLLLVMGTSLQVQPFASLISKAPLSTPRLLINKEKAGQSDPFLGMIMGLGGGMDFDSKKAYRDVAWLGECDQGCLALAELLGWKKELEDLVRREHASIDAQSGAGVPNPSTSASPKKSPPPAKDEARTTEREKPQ
# SIRT1 [1] = target: T2, SIRT1 (Homo sapiens, UniProt Q96EB6); experiment: Fluor de Lys SIRT1 assay; details: for inhibition at 10 µM: read-out: % inhibition at 10 μM SIRT1; for inhibition at 50 µM: read-out: % inhibition at 50 μM SIRT1
# T2 sequence (Q96EB6 1-747): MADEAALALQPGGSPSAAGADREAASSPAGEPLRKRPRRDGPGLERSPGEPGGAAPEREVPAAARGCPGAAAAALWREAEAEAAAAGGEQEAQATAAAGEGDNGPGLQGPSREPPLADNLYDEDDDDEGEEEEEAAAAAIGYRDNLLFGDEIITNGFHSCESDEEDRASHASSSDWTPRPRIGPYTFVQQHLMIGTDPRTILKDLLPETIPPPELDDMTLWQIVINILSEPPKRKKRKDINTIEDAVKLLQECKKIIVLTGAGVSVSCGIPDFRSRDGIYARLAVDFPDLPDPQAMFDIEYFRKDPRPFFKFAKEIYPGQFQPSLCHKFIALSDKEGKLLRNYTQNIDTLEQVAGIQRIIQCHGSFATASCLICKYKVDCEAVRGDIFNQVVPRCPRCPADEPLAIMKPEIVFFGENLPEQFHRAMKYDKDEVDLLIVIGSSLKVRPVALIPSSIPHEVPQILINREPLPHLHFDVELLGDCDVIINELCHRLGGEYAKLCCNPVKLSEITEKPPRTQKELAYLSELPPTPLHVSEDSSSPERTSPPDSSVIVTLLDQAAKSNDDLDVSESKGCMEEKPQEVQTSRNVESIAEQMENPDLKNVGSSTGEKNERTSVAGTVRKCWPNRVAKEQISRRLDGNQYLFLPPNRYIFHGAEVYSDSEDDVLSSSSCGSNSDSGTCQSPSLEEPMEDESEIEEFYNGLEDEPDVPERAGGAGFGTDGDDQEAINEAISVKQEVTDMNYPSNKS
# SIRT5 = target: T3, SIRT5 (Homo sapiens, UniProt Q9NXA8); experiment: Fluor de Lys SIRT5 assay; details: for inhibition at 10 µM: read-out: % inhibition at 10 μM SIRT5; for inhibition at 50 µM: read-out: % inhibition at 50 μM SIRT5
# T3 sequence (Q9NXA8 37-310): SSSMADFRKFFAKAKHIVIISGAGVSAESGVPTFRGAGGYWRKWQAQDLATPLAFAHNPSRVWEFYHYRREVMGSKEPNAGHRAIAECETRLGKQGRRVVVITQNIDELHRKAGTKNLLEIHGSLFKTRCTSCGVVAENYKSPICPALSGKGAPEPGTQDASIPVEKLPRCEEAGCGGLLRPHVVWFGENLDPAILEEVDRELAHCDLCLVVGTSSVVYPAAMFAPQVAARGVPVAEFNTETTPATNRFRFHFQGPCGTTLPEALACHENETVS
# SIRT3 [2] = target: T4, SIRT3 (Homo sapiens, UniProt Q9NTG7); experiment: Fluor de Lys SIRT3 assay; details: for inhibition at 10 µM: read-out: % inhibition at 10 μM SIRT3; for inhibition at 50 µM: read-out: % inhibition at 50 μM SIRT3
# T4 sequence (Q9NTG7 1-399): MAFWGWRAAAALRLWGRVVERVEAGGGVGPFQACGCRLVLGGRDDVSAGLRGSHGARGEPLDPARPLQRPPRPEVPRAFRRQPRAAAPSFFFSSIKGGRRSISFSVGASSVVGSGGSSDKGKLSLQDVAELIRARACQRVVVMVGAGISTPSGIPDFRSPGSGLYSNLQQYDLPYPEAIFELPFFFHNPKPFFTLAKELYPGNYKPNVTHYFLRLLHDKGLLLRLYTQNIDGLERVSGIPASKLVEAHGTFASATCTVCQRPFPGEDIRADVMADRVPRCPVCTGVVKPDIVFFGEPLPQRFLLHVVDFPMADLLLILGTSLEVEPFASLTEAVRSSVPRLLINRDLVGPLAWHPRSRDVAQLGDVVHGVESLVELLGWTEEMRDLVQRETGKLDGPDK
# MDA-MB-231 cells = experiment: Cell growth assay (AlamarBlue), MDA-MB-231; type: cell-based, human; details: Homo sapiens, 72 h of treatment
# SIRT3 [3] = target: T4, SIRT3; parameters: purchased Biomol / Enzo Life Sciences (Fluor de Lys kit AK-557) BML-SE270-0500; details: cited from earlier work
# SIRT1 [4] = target: T2, SIRT1; parameters: purchased Biomol / Enzo Life Sciences (Fluor de Lys kit AK-555) BML-SE239-0100; details: cited from earlier work
inhibition at 10 µM (SIRT2),inhibition at 10 µM (SIRT1 [1]),inhibition at 50 µM (SIRT1 [1]),inhibition at 10 µM (SIRT5),inhibition at 50 µM (SIRT5),inhibition at 10 µM (SIRT3 [2]),inhibition at 50 µM (SIRT3 [2]),inhibition at 1 µM (SIRT2),"GI50 (MDA-MB-231 cells; MDA-MB-231, 72 h)",IC50 (SIRT2),"reduction of the SIRT2 inhibitory activity (SIRT2; removal of the phenoxyethyl fragment, relative to 26)",SIRT2 inhibition (in words) (SIRT2),inhibition at 50 µM (SIRT2; read-out: % inhibition at 50 μM SIRT2),IC50 (SIRT1 [1]),inhibition at 1 µM (SIRT1 [1]; read-out: % inhibition at 1 μM SIRT1),IC50 (SIRT3 [2]),inhibition at 1 µM (SIRT3 [2]; read-out: % inhibition at 1 μM SIRT3),SMILES,GI50 (MDA-MB-231 cells),IC50 (SIRT3 [3]),IC50 (SIRT1 [4])
90 ± 1.5%,3 ± 3.6%,14%,10 ± 2.6%,12%,1 ± 2.6%,12%,32 ± 4.1%,> 30 µM,1.74 ± 0.26 µM,–,–,–,–,–,–,–,"NC(=O)c1ccccc1Nc1cccc(OCCc2ccccc2)c1 [Compound 6, 3′-phenethyloxy-2-anilinobenzamide, reference compound]",–,> 300 µM,> 300 µM
45 ± 2.9%,0.9 ± 0.62%,14%,0%,3%,–,–,–,–,–,–,–,–,–,–,–,–,"N#C/C(=C\c1ccc(-c2cc(Cl)ccc2Cl)o1)C(=O)Nc1cccc2ncccc12 [Compound 7, AGK2, reference compound]",–,–,–
31 ± 0.42%,6.2 ± 0.85%,25%,0%,0%,0%,0%,–,–,–,–,–,–,–,–,–,–,"O=C(Nc1cccc([N+](=O)[O-])c1)c1cccc(S(=O)(=O)N2CCCCCC2)c1 [Compound 8, AK-1, reference compound]",–,–,–
85 ± 0.47%,10 ± 1.9%,18%,0%,4%,10 ± 0.95%,13%,19 ± 0.63%,–,3.6 ± 0.03 µM,–,–,–,–,–,–,–,NC(=O)CNC(=O)c1ccccc1Nc1cccc(OCCc2ccccc2)c1 [Compound 17],–,–,–
81 ± 0.43%,2 ± 1%,12%,0%,3%,0%,3%,–,–,4.04 ± 0.65 µM,–,–,–,–,–,–,–,CCCNC(=O)CNC(=O)c1ccccc1Nc1cccc(OCCc2ccccc2)c1 [Compound 18],–,–,–
69 ± 2.2%,4.5 ± 3.4%,4%,6 ± 3.2%,6%,3 ± 3.2%,2%,–,–,6.71 ± 0.42 µM,–,–,–,–,–,–,–,CCCCCNC(=O)CNC(=O)c1ccccc1Nc1cccc(OCCc2ccccc2)c1 [Compound 19],–,–,–
99 ± 0.15%,16 ± 0.1%,25%,0%,6%,14 ± 4.9%,56%,74 ± 2%,10.8 µM,0.37 ± 0.03 µM,–,–,–,–,–,–,–,C[C@H](NC(=O)[C@H](CCCCNC(=O)CNC(=O)c1ccccc1Nc1cccc(OCCc2ccccc2)c1)NC(=O)OCc1ccccc1)C(N)=O [Compound 26],–,–,–
80 ± 0.12%,24 ± 2.1%,68%,0%,3%,9 ± 2.2%,16%,–,–,1.84 ± 0.21 µM,~20%,–,–,–,–,–,–,C[C@H](NC(=O)[C@H](CCCCNC(=O)CNC(=O)c1ccccc1Nc1ccccc1)NC(=O)OCc1ccccc1)C(N)=O [Compound 27],–,–,–
8 ± 3.3%,3.5 ± 1%,1%,0%,0%,1 ± 1.8%,0%,–,–,–,–,no SIRT2 inhibition,18%,–,–,–,–,C[C@H](NC(=O)[C@H](CCCCNC(=O)CNC(=O)c1ccccc1)NC(=O)OCc1ccccc1)C(N)=O [Compound 28] (Cbz-Lys([Gly-Bz])-Ala-NH2),–,–,–
54 ± 1.5%,0%,10%,1 ± 2.2%,3%,0%,0%,–,–,8.47 ± 0.3 µM,–,–,–,–,–,–,–,CCCNC(=S)CNC(=O)c1ccccc1Nc1cccc(OCCc2ccccc2)c1 [Compound 41],–,–,–
40 ± 3.4%,0%,11%,0%,3%,0%,2%,–,–,19.3 ± 3.1 µM,–,–,–,–,–,–,–,CCCCCNC(=S)CNC(=O)c1ccccc1Nc1cccc(OCCc2ccccc2)c1 [Compound 42],–,–,–
99 ± 3.2%,97 ± 0.04%,–,3 ± 3.9%,6%,65 ± 0.23%,–,56 ± 1.9%,–,0.59 ± 0.13 µM,–,–,–,0.18 ± 0.013 µM,83 ± 0.4%,4.39 ± 0.28 µM,19 ± 0.78%,"CC(=S)NCCCC[C@H](NC(=O)OCc1ccccc1)C(=O)N[C@@H](C)C(N)=O [UKU 10363, reference compound]",–,–,–

SMILES,inhibition at 10 µM (SIRT2),inhibition at 10 µM (SIRT1 [1]),inhibition at 50 µM (SIRT1 [1]),inhibition at 10 µM (SIRT5),inhibition at 50 µM (SIRT5),inhibition at 10 µM (SIRT3 [2]),inhibition at 50 µM (SIRT3 [2]),inhibition at 1 µM (SIRT2),"GI50 (MDA-MB-231 cells; MDA-MB-231, 72 h)",IC50 (SIRT2),"reduction of the SIRT2 inhibitory activity (SIRT2; removal of the phenoxyethyl fragment, relative to 26)",SIRT2 inhibition (in words) (SIRT2),inhibition at 50 µM (SIRT2; read-out: % inhibition at 50 μM SIRT2),IC50 (SIRT1 [1]),inhibition at 1 µM (SIRT1 [1]; read-out: % inhibition at 1 μM SIRT1),IC50 (SIRT3 [2]),inhibition at 1 µM (SIRT3 [2]; read-out: % inhibition at 1 μM SIRT3),GI50 (MDA-MB-231 cells),IC50 (SIRT3 [3]),IC50 (SIRT1 [4])
"CN(C)CCCCC(=O)Nc1ccc(NC(=S)NC(=O)c2ccc(C(C)(C)C)cc2)cc1 [Compound 3, tenovin-6, reference compound]",45 ± 2.5%,0.9 ± 0.17%,64%,0%,2%,0%,9%,–,–,–,–,–,–,–,–,–,–,–,–,–
"Cc1cc(C)nc(SCC(=O)Nc2ncc(Cc3cccc4ccccc34)s2)n1 [Compound 5, SirReal2, reference compound]",98 ± 3.1%,3 ± 0.65%,6%,3 ± 1.5%,1%,5 ± 0.6%,1%,80 ± 1.5%,–,–,–,–,–,–,–,–,–,9.46 µM,> 100 µM,> 100 µM
"NC(=O)C1CCCc2c1[nH]c1ccc(Cl)cc21 (stereo not shown) [Compound 9, EX-527, reference compound]",79 ± 1.3%,97 ± 0.13%,–,0%,0%,–,–,–,> 30 µM,–,–,–,–,–,–,–,–,–,–,–
